US8492570B2, “2-substituted estra-1,3,5(10)-triene-3-yl sulfamate with an anti-tumor action” (Sterix Limited, priority 2003, dated 2013)

What was measured:
[1] = target: T1, microtubular protein (tubulin) purified from pig brains (Sus scrofa, UniProt P02550+P02554); test: Inhibition of tubulin polymerization (turbidimetry at 340 nm); format: biochemical; conditions: pig brain microtubular protein 1 mg/ml, 0.25 mmol GTP, 37° C.
T1 construct: microtubular protein was purified from pig brains via cyclic assembling/disassembling; from tissue; host or cells: pig brain
Protocol: The in-vitro testing of the tubulin polymerization influence was performed as follows:
The buffer system used had the following composition: 20 mmol of PIPES (1,4-piperazine-diethane-sulfonic acid, pKa 6.8), 80 mmol of NaCl, 0.5 mmol of MgCl2, 1 mmol of EGTA (ethylene glycol-bis-(2-aminoethylene)-tetraacetic acid).
For active ingredient testing, protein concentrations of 1 mg/ml (about 10^−5 mmol of tubulin) were used. […] The assembling of microtubuli was carried out in the presence of 0.25 mmol of GTP and heating the samples to 37° C.
The microtubulus formation was examined by means of turbidimetry at a wavelength of 340 nm.
Testing of the active ingredients was carried out by their addition at the beginning of the assembling or in the state of equilibrium. Deviations of turbidity curves from the control characterize its activity. To monitor action and to evaluate the measured turbidity values, a transmission electron microscopic study (CEM 902 A, Zeiss/Oberkochen) of the assemblates was always performed after negative staining with 1% aqueous uranyl acetate.

[2] = test system: DU145 human prostate tumor cells; test: Inhibition of cell proliferation, crystal violet staining; format: cell-based; conditions: DU145, 4 days incubation
Protocol: (§1) Cell cultures of the following cell lines were prepared in 96-well microtiter plates: • 1. MaTu/ADR multidrug-resistant human breast tumor cells (Epo GmbH Berlin), 5000 cells/well. • 2. HCT116 human colon tumor cells (ATCC CCL-247), 3000 cells/well. • 3. NCl-H460 human non-small-cell lung cancer cells (ATCC HTB-177), 3000 cells/well. • 4. DU145 human prostate tumor cells (ATCC HTB-81), 5000 cells/well. • 5. HMVEC human primary dermal microvascular endothelial cells, 7500 cells/well.
(§2) After 24 hours of incubation in a cell culture incubator at 37° C., the cells of a microtiter plate were stained with crystal violet (reference plate), while the cells in the test plates were incubated for 4 days with the test substances in the concentrations […], as well as with the DMSO solvent by itself (solvent control). The cell proliferation was determined by staining cells with crystal violet. The extinction of the crystal violet was determined by photometry at 595 nm. The percentage of the change in the cell number in the test plates was determined after the extinction values were normalized to the reference plate (0%) and to the solvent control (100%). The semi-maximal inhibition of the cell growth (IC50) was determined as the substance concentration, in which 50% of the cell number of the solvent controls were present.

[3] = test system: HCT116 human colon tumor cells; test: as above; format: cell-based; conditions: HCT116, 4 days incubation
Protocol: as §1, §2

[4] = test system: HMVEC human primary dermal microvascular endothelial cells; test: as above; format: cell-based; conditions: 4 days incubation
Protocol: as §1, §2

[5] = test system: MaTu/ADR multidrug-resistant human breast tumor cells; test: as above; format: cell-based; conditions: 4 days incubation
Protocol: as §1, §2

[6] = test system: NCl-H460 human non-small-cell lung cancer cells; test: as above; format: cell-based; conditions: NCl-H460, 4 days incubation
Protocol: as §1, §2

T1 sequence (P02550 whole entry): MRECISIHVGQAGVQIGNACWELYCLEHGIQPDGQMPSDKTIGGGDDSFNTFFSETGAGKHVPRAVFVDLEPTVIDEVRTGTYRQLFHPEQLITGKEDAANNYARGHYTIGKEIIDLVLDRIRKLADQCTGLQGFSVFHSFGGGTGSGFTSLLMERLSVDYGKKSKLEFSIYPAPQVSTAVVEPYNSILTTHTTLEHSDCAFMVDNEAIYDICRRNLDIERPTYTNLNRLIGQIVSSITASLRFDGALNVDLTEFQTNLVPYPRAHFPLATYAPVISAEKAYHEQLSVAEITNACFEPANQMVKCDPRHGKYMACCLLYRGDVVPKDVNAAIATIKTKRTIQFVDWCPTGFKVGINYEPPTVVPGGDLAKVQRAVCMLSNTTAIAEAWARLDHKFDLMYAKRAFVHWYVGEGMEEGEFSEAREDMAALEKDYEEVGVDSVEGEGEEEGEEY
T1 sequence (P02554 whole entry): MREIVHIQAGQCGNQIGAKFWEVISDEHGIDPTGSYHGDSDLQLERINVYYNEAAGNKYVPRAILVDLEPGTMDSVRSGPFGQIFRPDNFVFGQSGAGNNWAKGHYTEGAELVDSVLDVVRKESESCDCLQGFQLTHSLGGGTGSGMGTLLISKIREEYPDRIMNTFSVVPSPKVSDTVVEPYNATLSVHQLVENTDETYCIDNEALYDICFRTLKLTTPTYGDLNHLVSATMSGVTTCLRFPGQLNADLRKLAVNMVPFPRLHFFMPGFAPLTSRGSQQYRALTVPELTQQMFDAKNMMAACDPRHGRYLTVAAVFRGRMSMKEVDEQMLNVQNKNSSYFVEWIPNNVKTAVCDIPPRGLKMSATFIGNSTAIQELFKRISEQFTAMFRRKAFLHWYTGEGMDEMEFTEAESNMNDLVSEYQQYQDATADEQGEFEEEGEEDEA

SMILES	IC50 [1] [nM]	IC50 [2] [nM]	IC50 [3] [nM]	IC50 [4] [nM]	IC50 [5] [nM]	IC50 [6] [nM]	IC50 ([2]; Homo sapiens, DU-145, 96 h) [nM]	IC50 ([3]; Homo sapiens, HCT-116, 96 h) [nM]	IC50 ([4]; Homo sapiens, 96 h) [nM]	IC50 ([5]; Homo sapiens, 96 h) [nM]	IC50 ([6]; Homo sapiens, 96 h) [nM]
COc1cc2c(cc1O)CC[C@@H]1[C@@H]2CC[C@]2(C)[C@@H](O)CC[C@@H]12 [2-Methoxyestradiol, reference compound]	2700	1900	1100	2200	200	1800					
COc1cc2c(cc1OS(N)(=O)=O)CC[C@@H]1[C@@H]2CC[C@]2(C)CCC[C@@H]12 [(1), 2-Methoxy-estra-1,3,5(10)-trien-3-yl Sulfamate]	670						500	400	< 100	110	400
CCc1cc2c(cc1OS(N)(=O)=O)CC[C@@H]1[C@@H]2CC[C@]2(C)[C@@H](OC)CC[C@@H]12 [(3), 2-Ethyl-17β-methoxy-estra-1,3,5(10)-trien-3-yl sulfamate]	1400						180	180	160	120	180
C=C1CC[C@H]2[C@@H]3CCc4cc(OS(N)(=O)=O)c(OC)cc4[C@H]3CC[C@]12C [(4), 2-Methoxy-17(20)-methylene-estra-1,3,5(10)-trien-3-yl Sulfamate]	1400						180	180	160	< 100	180
COc1cc2c(cc1OS(N)(=O)=O)CC[C@@H]1[C@@H]2CC[C@]2(C)[C@@H](C)CC[C@@H]12 [(5), 2-methoxy-17β-methyl-estra-1,3,5(10)-trien-3-yl sulfamate]	1300										
C=C1CC[C@H]2[C@@H]3CC(=NO)c4cc(OS(N)(=O)=O)c(OC)cc4[C@H]3CC[C@]12C [(7), 2-Methoxy-17(20)-methylene-6-oximino-estra-1,3,5(10)-trien-3-yl Sulfamate]		550	500	130	130	500					
COc1cc2c(cc1OS(N)(=O)=O)CC[C@@H]1[C@@H]2CC[C@]2(C)C(=C(F)F)CC[C@@H]12 [(8), 17(20)-Difluoromethylene-2-methoxy-estra-1,3,5(10)-trien-3-yl Sulfamate]	1100						500	300	200	170	220
COc1cc2c(cc1OS(N)(=O)=O)CC[C@@H]1[C@@H]2CC[C@]2(C)[C@@H](C(F)F)CC[C@@H]12 [(9), 17β-Difluoromethyl-2-methoxy-estra-1,3,5(10)-trien-3-yl Sulfamate]	1500						400	300	200	110	220
COc1cc2c(cc1OS(N)(=O)=O)CC[C@@H]1[C@@H]2CC[C@]2(C)[C@@H](CO)CC[C@@H]12 [(11), 17β-Hydroxymethyl-2-methoxy-estra-1,3,5(10)-trien-3-yl Sulfamate]							200	180	< 100	< 100	180
CC(=O)O[C@H]1C(=O)[C@@]2(C)[C@H]([C@H](OC(=O)c3ccccc3)[C@]3(O)C[C@H](OC(=O)[C@H](O)[C@@H](NC(=O)c4ccccc4)c4ccccc4)C(C)=C1C3(C)C)[C@]1(OC(C)=O)CO[C@@H]1C[C@@H]2O [Taxol, reference compound]							4	4	4	400	4
